The test system of assay [1] is PANC-1 cells. The assay can be described thus: MTT cell activity assay (inhibitory activity against PANC-1 cells). In kind it is cell-based. The protocol:
A total of 3000 PANC-1 cells were resuspended in 200 μL of culture medium and seeded into 96-well plates. After 24 h, the cells were treated with the compound and incubated for an additional 72 h. Following the incubation, 20 μL of 5 mg/mL MTT solution (Solarbio, China) was added to each well in the dark, and the cells were incubated for another 4 h. After incubation, the culture medium was discarded, and the wells were washed with PBS to remove any residual medium. Then, 200 μL of DMSO was added to each well to fully dissolve the formazan crystals, and the solution was mixed thoroughly. The absorbance was measured at 492 nm/570 nm, and the data were analyzed using GraphPad Prism.
(Tetrazolium dyes change colour on reduction, which living cells bring about.)

Assay [2] concerns pancreatic cancer cells. The assay can be described thus: EdU assay. In kind it is cell-based. The settings on record: 48 h treatment, concentration-dependent, vs control. An excerpt: The EdU ([…]) assay is a well-established method that assesses cell proliferation activity by detecting DNA synthesis. The results of EdU assays indicated […]
concentration-dependent manner. […]
the DNA synthesis of pancreatic cancer cells, thereby inhibiting the proliferation of pancreatic cancer cells, which was consistent with the results of clone formation assays. […]
Snail and TCF8/ZEB1 both […]
are transcription factors that can inhibit the expression of E-cadherin and promote the EMT process. Vimentin is a marker protein of mesenchymal cells, and its expression increases during EMT, further contribute to the process of metastasis by supporting the structural changes needed for cell migration and invasion.
We examined the effects of compound 1a on above key proteins involved in tumor progression pathways employing Western blot analysis in PANC-1 cells and MIA PaCa-2 […]
1a might inhibit cancer cell invasion and migration by enhancing cell-cell adhesion and barrier function. Conversely, the expression levels of β-catenin, Fibronectin, Snail, […]
Cells were resuspended at a concentration of 300 cells/mL, and 2 mL of the suspension was added to each well of a 6-well plate. […] The colonies were imaged under a microscope and quantified using ImageJ. […]

Structures are written as SMILES. Where two headings read alike, the source gives them in different places.

What is called IC50 is the concentration that inhibits the measured activity by half. `CCCCC(C)CC(C)C(=O)N(C)C(Cc1ccc(OC)cc1)C(=O)NC(C(=O)N(C)C(C(=O)N1CC(O)CC1C(=O)N1C(=O)C=CC1C)C(C)C)C(C)OC(C)=O` (stereo not drawn) [Compound 1a, Majusculamide D]: the IC50 in assay [1] (Homo sapiens, PANC-1, 72 h, read-out: IC50 (nM), inhibitory activity against PANC-1 cells (Table 2), PANC-1 cells, 72 h incubation, mean ± SD, n = 3, Table 2 series) was found to be 1.99 ± 0.68 nM; in assay [1] (read-out: IC50 (nM), inhibitory activity against PANC-1 cells (Table 1), PANC-1 cells, 72 h incubation, mean ± SD, n = 3), 1.88 ± 0.82 nM. The “cell proliferation ability (EdU, DNA synthesis)” value in assay [2] is “decreased in comparison to the control group”.
